Test results as given in paper PMC7170889, “Synthesis and evaluation of designed PKC modulators for enhanced cancer immunotherapy” (Nature Communications, 2020).

Experiments:
PKCδ-GFP fusion protein = biological target: T1, PKCδ-GFP fusion protein (Homo sapiens, UniProt Q05655); assay: PKCδ-GFP translocation assay in living CHO-k1 cells (confocal microscopy); type: cell-based, Chinese hamster; conditions: CHO-k1 cells; for minimum effective concentration required to induce translocation of PKC-GFP to the membrane: tested at 200 and 1000 nM
T1 construct: expressed in transfected cells; host or cells: CHO-k1 (Chinese hamster ovary, ATCC)
T1 sequence (Q05655 whole entry, the tested form may be a part): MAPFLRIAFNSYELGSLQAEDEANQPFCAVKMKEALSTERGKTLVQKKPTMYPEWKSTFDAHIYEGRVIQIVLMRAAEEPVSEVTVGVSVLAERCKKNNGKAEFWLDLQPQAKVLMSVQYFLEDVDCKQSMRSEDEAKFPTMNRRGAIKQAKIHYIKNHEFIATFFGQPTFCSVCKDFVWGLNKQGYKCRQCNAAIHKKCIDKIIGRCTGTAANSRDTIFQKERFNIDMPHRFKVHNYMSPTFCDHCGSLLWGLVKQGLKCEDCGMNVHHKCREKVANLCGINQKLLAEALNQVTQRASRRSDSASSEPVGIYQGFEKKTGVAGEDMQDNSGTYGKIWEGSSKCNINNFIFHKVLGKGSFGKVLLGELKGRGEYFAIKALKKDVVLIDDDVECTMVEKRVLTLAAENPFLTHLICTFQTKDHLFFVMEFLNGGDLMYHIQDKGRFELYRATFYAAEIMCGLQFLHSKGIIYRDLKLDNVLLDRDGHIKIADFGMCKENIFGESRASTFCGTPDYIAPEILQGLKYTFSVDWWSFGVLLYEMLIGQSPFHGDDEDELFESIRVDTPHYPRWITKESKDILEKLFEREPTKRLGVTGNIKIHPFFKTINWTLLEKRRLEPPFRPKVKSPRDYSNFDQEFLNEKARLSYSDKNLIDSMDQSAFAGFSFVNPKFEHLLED
Procedure: (§1) With a panel of compounds bearing diverse functionality at C13, we began to explore how these modifications affect PKC binding and biological function. Because an obvious prerequisite for PKC pathway involvement is binding to PKC, compounds were initially evaluated for PKC affinity in a cell-free competitive binding assay with tritiated phorbol dibutyrate ([^3H]-PDBu). Assays were performed with representative members of both the conventional (PKCα) and novel (PKCδ) PKC families. Subsequently, compounds were assayed for PKC isoform translocation in real time in living cells using an optical assay. Translocation to the plasma membrane is the hallmark of PKC activation[18],[57],[60] and therefore monitoring the subcellular localization of a PKCδ-GFP fusion protein via confocal microscopy offers a convenient method for determining whether a compound enters a cell and engages its PKC isoform target. Finally and of clinical significance, we also determined the effect of compounds on CD22 surface expression in vitro in NALM6 cells, an ALL cell line previously studied in connection with CD22-targeted CAR T cell therapy, and two additional lymphoma cell lines[11],[31],[65].
Scale bar represents 25 μm. Experiments performed in n = 3 biological replicates. b–d Cytosolic fluorescence normalized to t = 0 (time immediately prior to addition of compound to media) and plotted against time. Error bars excluded for clarity (data presented as the mean of n = 3 biological replicates). Individual curves with error bars included in Supplementary Information.
PKCδ-GFP Translocation Assay Protocol
Chinese hamster ovary factor K1 (CHO-k1, ATCC) cells were cultured in F-12 Kaighn’s media (Hyclone, 10% fetal bovine serum, 1% penicillin/streptomycin added, reffered to as F-12 +/+ below) at 37 ° C in an incubator (5% CO2). Cell cultures were maintained by splitting cells 1:3 when they reached ~75-100% confluence (every 2-3 days) as follows:
(Gibco) was used to remove the cells from the culture flask (T75, Falcon). 1 mL of the cell suspension was then added to 9 mL of fresh F-12 +/+ and the sample was sub-cultured until reaching confluence (~2-3 days).
Cells were counted using a Countess II Automated Cell Counter (Fisher). The cell suspension was diluted to 240,000 cells/mL with fresh F-12 +/+ and 2.5 mL of this diluted stock was added to one well in a 6-well plate. The cells were then cultured for 24 hours.
Cells were transfected with Lipofectamine 2000 reagent (Invitrogen) or DA 13:11 at a 10:1 charge […]
F-12 +/+ was aspirated and cells were washed with F-12 -/-. 2 mL of fresh F-12 -/- was then added to each well, taking care not to disturb adherent cells. For each well of CHO-k1 cells, 12.5 µL Lipofectamine 2000 reagent (Invitrogen) was added to 250 µL Opti-MEM reduced serum media (Invitrogen) in a polypropylene tube and incubated for 20 minutes at RT. Meanwhile, for each well, 4 µg of PKCδ-GFP pDNA and 250 µL Opti-MEM reduced serum media was added to a separate polypropylene tube. 250 µL of the Lipofectamine 2000 suspension was added to the DNA suspension and the solution incubated for 30 minutes at RT. 500 µL of the Lipofectamine/DNA suspension was added to the respective wells of the 6-well plate. The cells were then incubated at 37 ° C (5% CO2) for ~24 hrs.
F-12 +/+ was aspirated and cells were washed with F-12 -/-. 2.4 mL of fresh F-12 -/- was then added to each well, taking care not to disturb adherent cells. A 4 µg aliquot of PKCδ-GFP pDNA was added to PBS (pH 5.5, final volume 100 µL). 5.6 µL of DA 13:11 (2 mM stock in DMSO) was then added to the DNA solution, and the mixture was gently mixed (by flicking) for 20 seconds, at which point it was added directly to the respective wells of the 6-well plate.

PKCα = biological target: T2, PKCα (Homo sapiens, UniProt P17252); assay: PKC competitive binding assay with [3H]-phorbol dibutyrate (PKCα); conditions: cell-free, competition with [3H]-PDBu, PS vesicles; read-out: Ki PKCα
T2 construct: purchased Invitrogen
Procedure: as §1
(§2) PKC Binding Assay Protocol […]
(§3) competition with 3H-phorbol-12,13-dibutyrate (3H-PDBu) as described below. This procedure entails a glass-fiber filtration method to determine bound radioligand.
(§4) Preparation of PKC binding assay buffer
(§5) To a 50 mL polypropylene tube was added Tris-HCl (pH 7.4, 1 M, 1 mL), KCl (1 M, 2 mL), CaCl2 (0.1 M, 30 μL), and bovine serum albumin (BSA, 40 mg, Sigma-Aldrich). This mixture was diluted to 20 mL with deionized H2O and mixed gently. The buffer was stored on ice until use. The final […]
(§6) Supplementary Table1. PKC binding assay buffer composition.
(§7) Preparation of phosphatidylserine (PS) vesicles
(§8) For every two assays, 3.5 mg phosphatidylserine (Avanti Polar Lipids, porcine, 25 mg/mL CHCl3 solution) was concentrated by removing chloroform under a stream of nitrogen followed by reduced pressure. The solid PS was suspended as vesicles in freshly prepared PKC binding assay buffer (3.5 mL) by sonicating six times for 30 sec, with a 30 sec rest between sonications (Branson Sonifier 250, power = 2, 50% duty cycle). The resulting milky cloudy mixture (1 mg/mL) was stored […]
(§9) Preparation of PKC isoform solution
(§10) Assay PKC was prepared by dissolving a 4 μg aliquot of the indicated recombinant human PKC isoform (Invitrogen) into 11.6 mL of PKC binding assay buffer (this amount is sufficient for two assays). The diluted PKC was stored on ice for immediate use.
(§11) Preparation of 3H-PDBu solution
(§12) 3H-PDBu (American Radiolabeled Chemicals, Inc.; 1 mCi/mL acetone solution; specific activity: […]) was diluted 10-fold with DMSO. The resulting 500 nM stock solution was further diluted with DMSO to 30 nM.
(§13) Preparation of analog compound dilutions
(§14) Compound dilutions were prepared by serially diluting from a chosen "high" concentration by factors of 3 or 4. For each analog compound, seven concentrations were used to define the […]
(§15) To a polypropylene tube was added 3.3 mL of 1 mg/mL PS vesicles solution, 11 mL of PKC isoform solution, and 1.1 mL of 30 nM 3H-PDBu solution were added. The resulting solution was vortexed to mix and stored on ice.
(§16) PKC binding assay protocol
(§17) - Glass-fiber filters (Whatman GF/B) were prepared by soaking them in a solution of aqueous polyethyleneimine (10% by vol, 18 mL) in deionized water (600 mL) for ≥1h.
(§18) - 500 mL "rinsing buffer" of 20 mM Tris, pH 7.4 was cooled on ice for the duration of the incubation period and for the remainder of the assay.
Triplicate data points were obtained for each analog concentration. For each data point, 280 μL of "Master Mix" Solution and 20 μL of analog compound at a specified concentration were added to a polypropylene tube. Non-specific 3H-PDBu binding was assessed in triplicate by substitution

PKC = PKC competitive binding assay, isoform not specified; design: species or system human; conditions: benzyl enoates, (Z) olefin geometry; comparator not stated
Procedure: as §1, §2, §3, §4, §5, §6, §7, §8, §9, §10, §11, §12, §13, §14, §15, §16
- Glass-fiber filters (Whatman GF/B) were prepared by soaking them in a solution of […]

PKCδ = biological target: T3, PKCδ (Homo sapiens, UniProt Q05655); assay: PKC competitive binding assay with [3H]-phorbol dibutyrate (PKCδ); conditions: cell-free, competition with [3H]-PDBu, PS vesicles
T3 construct: purchased Invitrogen
T3 sequence (Q05655 whole entry): as the sequence (Q05655 whole entry, the tested form may be a part) above
Procedure: as §1, §2, §3, §4, §5, §6, §7, §8, §9
Assay PKC was prepared by dissolving a 4 μg aliquot of the indicated recombinant human PKC isoform (Invitrogen) into 11.6 mL of PKC binding assay buffer (this amount is sufficient for two assays). The diluted PKC was stored on ice for immediate use. […]
μCi/mmol) was diluted 10-fold with DMSO. The resulting 500 nM stock solution was further diluted with DMSO to 30 nM.
as §13, §14, §15, §16, §17, §18
Triplicate data points were obtained for each analog concentration. For each data point, 280 μL of "Master Mix" Solution and 20 μL of analog compound at a specified concentration were added to a polypropylene tube. Non-specific 3H-PDBu binding was assessed in triplicate by substitution […]
μM). Maximal 3H-PDBu binding was assessed in triplicate by substitution of the analog compound with 20 μL DMSO. The solutions were vortexed to mix, incubated at 37 °C for 10 min, and […]

Compound | Emax at 0.2 µM (PKCδ-GFP fusion protein; CHO-K1, 200 nM compound, n = 3, read-out: % Translocation (maximum translocation of PKCδ-GFP to the plasma membrane)) [%] | minimum effective concentration required to induce translocation of PKC-GFP to the membrane (PKCδ-GFP fusion protein) [nM] | % Translocation (maximum translocation of PKCδ-GFP to the plasma membrane) (PKCδ-GFP fusion protein; 1000 nM compound, n = 3) [%] | Emax at 1 µM (PKCδ-GFP fusion protein; CHO-K1, 1000 nM compound, n = 3, read-out: % Translocation (maximum translocation of PKCδ-GFP to the plasma membrane)) [%] | Ki (PKCα) [nM] | decrease in affinity to PKC (PKC) | Ki (PKCδ) [nM]
CCC/C=C/C=C/C(=O)O[C@H]1/C(=C/C(=O)OC)C[C@H]2C[C@H]([C@@H](C)O)OC(=O)C[C@H](O)C[C@@H]3C[C@H](OC(C)=O)C(C)(C)[C@](O)(C[C@@H]4C[C@H](OC(C)=O)C[C@H](/C=C/C(C)(C)[C@]1(O)O2)O4)O3 [SUW206] | 60 | 200 |  |  |  |  | 
CCCC=CC=CC(=O)OC1C(=CC(=O)OC)CC2CC(C(C)O)OC(=O)CC(O)CC3CC(OC(C)=O)C(C)(C)C(O)(CC4CC(=CC(=O)OCc5ccccc5)CC(C=CC(C)(C)C1(O)O2)O4)O3 (stereo not drawn) [SUW220] |  | 1000 | 50 |  |  |  | 
CCCC=CC=CC(=O)OC1C(=CC(=O)OC)CC2CC(C(C)O)OC(=O)CC(O)CC3CC(OC(C)=O)C(C)(C)C(O)(CC4CC(=CC(=O)OCc5ccccc5)CC(C=CC(C)(C)C1(O)O2)O4)O3 (stereo not drawn) [SUW219] |  | 1000 |  | 60 | 37 | ~ 2 fold | 25
